Measured values: patent US9655886B2, “Substituted 2,3,4,5-tetrahydro-1H-pyrido[4,3-b]indoles, methods for use thereof” (priority 2015, dated 2017)

Key:
BALB/c male mice [1] = test: Mice Behavior an Elevated Cross Shaped Labyrinth (tranquilizing action); format: in vivo; settings: preference index for open sections, number of defecations; FIG. 19-21
Description: The length of each section in the labyrinth is 30 cm, the width is 5 cm, the height of the walls is 15 cm. Two opposite sections are closed by transparent walls on the sides and on the butt ends, the other two sections are lit and opened. A mouse was placed in the center of the labyrinth and for the next five minutes the number of entries the open and closed sections and the time spent in each type of section was registered. […] The animals usually avoid the open sections (the preference index is between 0.2 and 0.3).

BALB/c male mice [2] = test: Passive Avoidance of Mice in a Shuttle Chamber, scopolamine or MK-801 (Example 8); format: in vivo; settings: scopolamine 0.3 mg/kg or MK-801 0.1 mg/kg; SB-742457 1 mg/kg; FIGS. 5-10
Experimental: A shuttle chamber (Ugo Basile, Italy) consisted of two sections was used. […] The sections were connected via a hole which could be shut with a vertical door. The floor was made of transverse metal bars on which DC current impulses could be fed. Experiments were carried out on aged male mice of line BALB/c weighing 20-24 grams.
On the first day of the experiment 30 minutes before training the mice were injected intraintestinally with physiological solution of scopolamine (0.3 mg/kg) or scopolamine in combination with antagonists of 5-HT6 receptors 1.2.1(2)HCl, 1.2.1(4)HCl or 1.2.1(5)HCl. Each group consisted of at least 8 animals. The animals were placed in the light section, and the latent period of the first entry into the dark chamber was registered. Then the vertical door was closed and the animal was punished by 0.6 mA DC current for 3 seconds. After that the animal was carried back to its living cell. In 22-24 hours the same animal was placed in the light section of the shuttle chamber once again and the latent period before its entry into the dark section, the total time of its stay in the light section and the number of entries into the dark section were registered. Each observation lasted for 5 minutes.
The experiment was carried out in the same way as in example 7. On the first day 30 minutes before training the mice were injected intra-intestinally with a physiological solution of scopolamine (0.3 mg/kg) or MK-801(0.1 mg/kg).

BALB/c male mice [3] = test: Training Mice in the Morris Water labyrinth, scopolamine; format: in vivo; settings: scopolamine 0.6 mg/kg; 1.2.1(5)HCl 0.1 mg/kg, 1.2.1(1)HCl 1 mg/kg, tacrine 3 mg/kg; FIG. 11-12
Experimental: A circular pool of 100 cm diameter and of 30 cm sides was used. It was filled with water at 20-22° C. A circular ceramic platform of 14 cm height was placed in the pool. The behavior of the animals was registered using an automated computer video system in addition with software package of movement analyzer Any-maze (Stoelting Co., US). The experiments were carried out on aged male mice of BALB/c line weighing 20-24 grams. Before the experiments mice fit for learning were selected. This was done by placing the platform 1 cm above the water level and putting an animal on the platform for 20 seconds. Then the mouse was put in the water on the opposite side of the pool and allowed to find the platform and climb onto it for 60 seconds, where it was left for additional 20 seconds. After that the mouse was repeatedly immersed in the water on the opposite side of the pool and allowed to search for the platform. If it failed in finding the platform within 60 seconds the experimentator helped it to find the platform and climb onto it. If the mice couldn't find the platform itself in two consecutive attempts it was excluded from the experiment.
During the next two days the platform was placed 0.5 centimeters lower the water level. Every day the mice were given four attempts for finding the platform within 60 seconds. The time interval between the attempts was 20 seconds, during which the mice stayed on the platform. Every day before the first attempt the mice was placed on the platform for 20 seconds. The time needed for finding and climbing the platform was registered. The animals were sunk in water in two different places on the side of the pool opposite to the platform.
The animals of the control group were injected with physiological solution. At least 8 animals were used in each group.
On the third day the platform was removed and each animal was placed in the pool once for a period of 60 seconds. The time each mouse spent in the area where the platform had been located during the previous days was registered. […]

SHK male mice = test: Recognition of New Objects by Mice Under Scopolamine and MK-801; format: in vivo; settings: scopolamine 1 mg/kg and MK-801 0.2 mg/kg; FIG. 13-14
Experimental: The experiments were carried out in a closed cross shaped labyrinth which consisted of 4 peripheral sections connected with the central chamber via a 7×7 cm hole. The labyrinth was made of black plastic and its sections were of 14×14×14 cm size. The top cover of the labyrinth was transparent.
A mouse was placed in the central section of the labyrinth and allowed to investigate the environment. A mouse was considered to have entered a section once all of its four paws were inside the chamber. A test was considered to be completed when the mouse had moved 12 times between the sections, having made a total of 13 visits. The floor of the labyrinth was cleaned after each animal.
With each mouse the test was carried out twice with 1 hour interval.
During the first test, each section of the labyrinth contained a circular plastic cup of 3 cm height and 7 cm diameter. During the second test the cover in each of the two opposing sections was replaced by a conical glass bulb of 7 cm height and 4 cm across the bottom. The time that the mice spent in each section of the labyrinth was registered and the index of new object recognition was calculated as the ratio of the time spent in the sections with the bulbs to the time spent in all sections of the labyrinth. If no preference is given to the sections with new objects the index is 0.5.
When new objects appear the mice spend more time in the section containing them that results in an increased recognition index. Scopolamine (1 mg/kg) and MK-801 (0.2 mg/kg) disturbed learning (memory) that leads to lowering of the recognition index.

BALB/c male mice [4] = test: Passive Avoidance of Mice in a Shuttle Chamber, memory disturbed by scopolamine (Example 7); format: in vivo; settings: scopolamine 0.3 mg/kg, injected 30 minutes before training; FIGS. 2-4
Experimental: A shuttle chamber (Ugo Basile, Italy) consisted of two sections was used. […] The sections were connected via a hole which could be shut with a vertical door. The floor was made of transverse metal bars on which DC current impulses could be fed. Experiments were carried out on aged male mice of line BALB/c weighing 20-24 grams. On the first day of the experiment 30 minutes before training the mice were injected intraintestinally with physiological solution of scopolamine (0.3 mg/kg) or scopolamine in combination with antagonists of 5-HT6 receptors 1.2.1(2)HCl, 1.2.1(4)HCl or 1.2.1(5)HCl. Each group consisted of at least 8 animals. The animals were placed in the light section, and the latent period of the first entry into the dark chamber was registered. Then the vertical door was closed and the animal was punished by 0.6 mA DC current for 3 seconds. After that the animal was carried back to its living cell. In 22-24 hours the same animal was placed in the light section of the shuttle chamber once again and the latent period before its entry into the dark section, the total time of its stay in the light section and the number of entries into the dark section were registered. Each observation lasted for 5 minutes. The experiment was carried out during the day time in an isolated laboratory using white noise at a level of about 70 decibel above the human hearing threshold. Scopolamine causes the disturbance of training (memory loss) which results in […]. The fact that 5-HT6 receptor antagonists can improve the learning ability that has been disturbed by scopolamine is regarded as evidence for their nootropic effect.

5-HT6 receptor = target: T1, 5-HT6 receptor (Homo sapiens, UniProt P50406); test: Inhibition of serotonine stimulated intracellular cAMP in HEK 293 cells with expressed 5-HT6 receptor (LANCE cAMP); format: cell-based; settings: HEK 293 cells with artificially expressed 5-HT6 receptor; reduction of cAMP induced by serotonine
T1 construct: expressed in transfected cells; host or cells: HEK 293
T1 sequence (P50406 whole entry): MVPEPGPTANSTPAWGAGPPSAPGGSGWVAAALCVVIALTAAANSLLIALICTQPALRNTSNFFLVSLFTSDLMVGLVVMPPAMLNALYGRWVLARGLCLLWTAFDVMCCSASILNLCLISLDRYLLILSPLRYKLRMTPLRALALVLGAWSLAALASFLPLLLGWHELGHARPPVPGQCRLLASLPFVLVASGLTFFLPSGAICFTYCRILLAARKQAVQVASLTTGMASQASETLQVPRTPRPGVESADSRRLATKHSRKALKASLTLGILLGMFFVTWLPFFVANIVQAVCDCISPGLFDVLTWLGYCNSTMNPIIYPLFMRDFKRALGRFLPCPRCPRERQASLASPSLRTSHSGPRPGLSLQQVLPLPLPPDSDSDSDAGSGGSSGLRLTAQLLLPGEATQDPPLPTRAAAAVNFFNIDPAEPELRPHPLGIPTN
Experimental: The concentration of intracellular cAMP was determined using a LANCE cAMP reagent (PerkinElmer) by the method described by the manufacturer: [http://las.perkinelmer.com/content/Manuals/MAN_LANCEcAMP384KitUser.pdf].

Row | SMILES | tranquilizing action, elevated cross shaped labyrinth (BALB/c male mice [1]) | nootropic action, passive avoidance (BALB/c male mice [2]) | improvement of mice's training, Morris water labyrinth (BALB/c male mice [3]) | nootropic action, new object recognition (SHK male mice) | nootropic action (memory enhancement disturbed by scopolamine), passive avoidance (BALB/c male mice [4]) | also measured
1 | O=C1CC2(CCCC2)CC(=O)N1CCCCN1CCN(c2ncccn2)CC1 [Buspiron] | tranquilizing action | – | – | – | – | –
2 | Cc1ccc2c(c1)c1c(n2CCc2ccccc2)CCN(C)C1.Cl [1.2.1(1)HCl, 2,8-dimethyl-5-(2-phenylethyl)-2,3,4,5-tetrahydro-1H-pyrido[4,3-b]indole hydrochloride] | tranquilizing action, which is the most prominent | highest activity | statistically significant improvement of mice's training | nootropic action, the level of which is the most prominent | – | –
3 | O=S(=O)(c1ccccc1)c1cnc2c(N3CCNCC3)cccc2c1 [SB-742457] | – | inactive | – | nootropic action | – | –
4 | Cc1ccc2c(c1)c1c(n2CCc2ccccn2)CCN(C)C1.Cl [1.2.1(4)HCl, 2,8-dimethyl-5-[2-(pyridin-2-yl)ethyl]-2,3,4,5-tetrahydro-1H-pyrido[4,3-b]indole hydrochloride] | – | – | – | – | nootropic action which is the most prominent | –
5 | Cc1ccc2c(c1)c1c(n2CCc2ccc(C)nc2)CCN(C)C1.Cl [1.2.1(5)HCl, 2,8-dimethyl-5-[2-(6-methylpyridin-3-yl)ethyl]-2,3,4,5-tetrahydro-1H-pyrido[4,3-b]indole hydrochloride] | tranquilizing action | nootropic action | statistically significant improvement of mice's training | nootropic action | nootropic action | –
6 | CC12CC3CC(C)(C1)CC(N)(C3)C2 [memantine] | – | – | – | nootropic action | – | –
7 | Cc1ccc2c(c1)c1c(n2CCc2ccncc2)CCN(C)C1.Cl [1.2.1(2)HCl, 2,8-dimethyl-5-[2-(pyridin-4-yl)ethyl]-2,3,4,5-tetrahydro-1H-pyrido[4,3-b]indole hydrochloride] | – | – | – | – | nootropic action which is the most prominent | –
8 | Nc1c2c(nc3ccccc13)CCCC2 [tacrine] | – | – | statistically significant improvement of mice's training | – | – | –
9 | CN1CCc2c(c3ccccc3n2C#Cc2ccccc2)C1 [1.3(1), 2-methyl-5-phenylethynyl-2,3,4,5-tetrahydro-1H-pyrido[4,3-b]indole] | – | – | – | – | – | IC50 (5-HT6 receptor): 4.09 µM
